CC50 data for one compound are collected here from PubChem BioAssay AID624300 (Southern Research Specialized Biocontainment Screening …, 2012).

The test system of this assay is HeLa viability, CellTiter-Glo luminescence, 24 h. Description: viability loss in HeLa cells – cytotoxicity control for MgcRacGAP inhibitor project, dose response (AID 624300).

As a reminder, the CC50 is the concentration that lowers cell viability or growth by half.

As to `C#CCOCCOCCOCCNc1nc(N2CCN(C(=O)CCCCCCCCCCNC(=O)[C@@H](CCSC)n3cc(CCO)nn3)CC2)nc(N2CCN(C(=O)CCCCCCCCCCNC(=O)[C@H](CO)n3cc(CCCCCN)nn3)CC2)n1`, the CC50 is 85.3 µM.
